Measured values: BindingDB's records for PubMed 36069713 (China Pharmaceutical University, 2022)

Assay: Agonist activity at STING in STING knockout human THP-1 cells harboring IRF-inducible luciferase reporter construct assessed as increase in relative […] unit incubated for 12 hrs by Quanti-luc reagent based assay

Structure (SMILES): CC[C@H](CC(=O)c1cc2cc(OC)c(OC)cc2[se]1)C(=O)O
- EC50: > 100 µM
